Literature values in paper PMC3575012 (Scientific Reports, 2013).

How the values were obtained:
[1] = test system: amyloid precursor protein; conditions: stated as known, explained by buried free N-terminus of Aβ; ref not given
Alzheimer's disease = conditions: cohort of patients suffering “mild” AD; ref not given

Row | binding preference (plaque deposited Aβ) | Substance | cross reactivity with the amyloid precursor protein [1] | cognitive improvement (Alzheimer's disease)
1 | Preferential binding | Bapineuzumab | lack of cross reactivity | –
2 | – | Solanezumab | – | small but significant cognitive improvement
